Entries after “also recorded” stand apart in the source; their conditions may differ.
Columns and labels:
[1] = biological target: T1, ETA (Homo sapiens, UniProt P25101); test: Functional potency for ETA receptor; assay type: biochemical
T1 sequence (P25101 21-427): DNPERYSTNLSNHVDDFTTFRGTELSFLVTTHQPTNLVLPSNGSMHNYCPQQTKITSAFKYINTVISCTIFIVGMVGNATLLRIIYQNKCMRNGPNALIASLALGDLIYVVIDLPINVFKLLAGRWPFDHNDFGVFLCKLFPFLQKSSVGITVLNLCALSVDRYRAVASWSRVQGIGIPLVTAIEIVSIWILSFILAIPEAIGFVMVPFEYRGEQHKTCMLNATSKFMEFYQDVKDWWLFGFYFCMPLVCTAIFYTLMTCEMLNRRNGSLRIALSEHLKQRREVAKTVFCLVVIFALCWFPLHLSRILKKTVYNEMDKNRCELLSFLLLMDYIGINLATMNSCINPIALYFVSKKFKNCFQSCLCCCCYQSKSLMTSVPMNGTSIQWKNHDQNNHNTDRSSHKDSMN
From the text: (§1) In the above table, the physicochemical data, e.g., solubility, were obtained following standard protocols known in the field (see, e.g., Reis et al., Mini Rev Med Chem., 2010, 10(11):1071-6; Avdeef et al., Expert Opin Drug Metab Toxicol., 2005, 1(2):325-42; Bharate et al., Comb Chem High Throughput Screen., 2016, 19(6):461-9; and Jain et al., J Pharm Biomed Anal., 2013, 86:11-35.); and the biochemical data, i.e., potency for ETA/ETB, were obtained following the protocols known in the field (see, e.g., Kirkby et al., Br J Pharmacol., 2008, 153(6):1105-19; and Maguire et al., Br J Pharmacol., 2014, 171(24):5555-72.).

[2] = Solubility (pH 2, pH 7, ethyl acetate); assay type: physicochemical
From the text: as §1

[3] = Stability in solid state; assay type: physicochemical; conditions: 2 h@125° C.
From the text: as §1

[4] = Permeability (PAMPA); assay type: in vitro ADME; conditions: PAMPA log Pe and PSA
From the text: as §1

[5] = tested on: Morrison's rat model of glaucoma (elevated IOP); test: Morrison's rat model of glaucoma (RGC counts, PERG); assay type: in vivo, Brown Norway rats; conditions: topical eye drops 100 μg per dose, five days a week, four weeks
From the text: Adult male and female retired breeder Brown Norway rats (approximate age groups of 8 to 11 months) were obtained from Envigo (Indianapolis, IN). Baseline IOP measurements and pattern electroretinogram (PERG) amplitudes were collected prior to the surgery for elevation of IOP (to ensure that the IOP and PERG amplitudes were in the expected range of values). IOP was elevated in one eye (left eye) of the rats, while the corresponding right eyes served as contralateral controls. The Morrison method to elevate IOP in rats was carried out by injection of 50 μL. of hypertonic saline through the episcleral veins to sclerose the trabecular meshwork. IOP was measured twice a week throughout the entire duration of the experiment. […] After detecting an elevation of IOP for two consecutive days, topical administration of eye drops (20 μL (100 μg) per dose of the tested compounds in the IOP elevated eye) was commenced and carried out for five days a week for a total of four weeks. In the 4th week of treatment, PERG analysis was carried out and rats were sacrificed by an overdose of pentobarbital (Fatal-Plus). Aqueous humor was collected from the rat eyes, frozen and shipped for analysis. Retinal flat mounts were prepared, immunostained with the RGC marker, Brn3a antibody and surviving RGCs were counted in two eccentricities (central and peripheral).
For this study, the Morrison's model was used to induce ocular hypertension in adult male retired breeder Brown Norway rats as previously described by Morrison et al., (Morrison J C, Moore C G, Deppmeier L M, Gold B G, Meshul C K, Johnson E C. A rat model of chronic pressure-induced optic nerve damage. Exp Eye Res. 1997; 64(1):85-96).
The immunostained retinal flat mounts were obtained to measure the retinal ganglion cell (RGC) counts. To obtain immunostained retinal flat mounts, the animals were euthanized after the treatments and then their eyes were enucleated. The eye cups were fixed overnight at 4° C. in 4% paraformaldehyde (PFA) and retinal flat mounts were prepared for collecting images. The retinal ganglion cell (RGC) counting was conducted using the images of immunostained retinal flat mounts. The images were uploaded to ImageJ, a photo editor designed for biology research (Rasband, 1997-2018) and the labeled retinal ganglion cells were counted manually in two eccentricities (central and peripheral).
Pattern ERG (PERG) was used to assess the RGC function. […] Briefly, PERG signals were acquired from a DTL-plus electrode placed on the lower part of the corneal surface and the PERG waves were analyzed using the EMWIN software (LKC). The difference between the amplitude of the major positive (P1) and negative (N2) waves were calculated to decipher the PERG amplitude.

[6] = Pharmacokinetics after topical or oral administration in the rat; assay type: in vivo, Brown Norway rats
Method: After the administrations, the animals (N=2) were euthanized at different time points (e.g. 4 and 8 hours) and tissues were collected for analysis. List of tissues collected include plasma, retina/retinal pigment epithelium (RPE)/choroid, vitreous humor and aqueous humor.

[7] = tested on: ETA/ETB receptor; conditions: background statement; cited from earlier work

Functional potency for ETA and ETB receptors, rating in words [1]: High potency
Specificity ETA versus ETB, rating in words ([1]; ETA vs ETB): Low specificity
Solubility in Ethyl Acetate, rating in words ([2]; ethyl acetate): Good
Solubility at pH 2, comparison in words ([2]; pH 2): superior to that of Edonentan
Stability in Solid State, in words [3]: unstable
Stability in Solid State, remaining [3]: about 87% remaining/
Permeability, rating in words [4]: Mid-High
Detection in the retina/RPE/choroid after oral administration ([6]; oral, 50 mg/kg as printed): detectable
SMILES: CCCCCS(=O)(=O)N(CCC)CCN1C[C@H](c2ccc3c(c2)OCO3)[C@@H](C(=O)O)[C@@H]1c1ccc(OC)c(F)c1 [A-182086, (2R,3R,4S)-4-(2H-1,3-benzodioxol-5-yl)-2-(3-fluoro-4-methoxyphenyl)-1-[2-(N-propylpentane-1-sulfonamido)ethyl]pyrrolidine-3-carboxylic acid]
Pattern electroretinogram (PERG) changes, RGC function [5]: maintained RGC function
Retinal ganglion cell (RGC) counts in the peripheral retina [5]: prevented RGC loss
Ocular exposure after topical administration (retina/RPE/choroid, aqueous humor, vitreous humor) ([6]; eye drop 100 μg, 4 and 8 hours): detected; also recorded: permeate through cornea/sclera and achieve retina exposure
Endothelin receptor antagonism, description in words [7]: potent dual ETA/ETB receptor antagonist

Reference: US20260076948A1, “TREATMENT OF DIABETIC RETINOPATHY USING ENDOTHELIN RECEPTOR ANTAGONISTS” (Perfuse Therapeutics, Inc., priority 2019, published 2026)
